Data reported in patent publication US12642857B2, “Degradation of AKT by conjugation of ATP-competitive AKT inhibitor GDC-0068 with E3 ligase ligands and methods of use” (DANA-FARBER CANCER INSTITUTE, INC., priority 2019, dated 2026).

Legend:
phosphorylated PRAS40 [1] = test: Immunoblot of phosphorylated PRAS40 in MCF10A cells; type: cell-based, human; conditions: 24-hour treatment
Protocol: MDA-MB-468 (human breast cancer cell line) cells were maintained in RPMI 1640 (Wisent Bioproducts) supplemented with 10% FBS (Thermo Fisher Scientific) and MCF10A (human breast epithelial cell line) cells were maintained in Dulbecco's modified Eagle's medium (DMEM)/Ham's F12 (Wisent Bioproducts) supplemented with 5% equine serum (Fisher), insulin (10 μg/ml) (Life Technologies), hydrocortisone (500 ng/ml) (Sigma-Aldrich®), epidermal growth factor (20 ng/ml) (R&D Systems), and cholera toxin (100 ng/ml) (List Biological Lab). MDA-MB-468 and MCF10A cells were seeded at 250,000 cells/mL and 200,000 cells/mL, respectively. The following day cells were treated with inventive bifunctional compounds. After 24 hours, cells were washed with phosphate-buffered saline at 4° C. and lysed in radioimmunoprecipitation assay (RIPA) buffer (150 mM Tris-HCl, 150 mM NaCl, 0.5% (w/v) sodium deoxycholate, 1% (v/v) NP-40, pH 7.5) containing 0.1% (w/v) sodium dodecyl sulfate, 1 mM sodium pyrophosphate, 20 mM sodium fluoride, 50 nM calyculin, and 0.5% (v/v) protease inhibitor cocktail (Sigma-Aldrich®)). Cell extracts were precleared by centrifugation at 14,000 rpm for 10 minutes at 4° C. The Bio-Rad DC protein assay was used to assess protein concentration, and sample concentration was normalized using SDS sample buffer. […] Images were stored and analyzed using ImageStudioTM (LI-COR®) software. […]

[2] = test system: phospho-PRAS40 (T246), phospho-GSK3I3 (S9), phospho-S6 (S240/244); test: Immunoblot of downstream signaling (pPRAS40, pGSK3, pS6) in T47D and MDA-MB-468 cells; type: cell-based, human
Protocol: Solid vertical white line indicates samples run on separate gels. […] Solid vertical white line indicates samples run on separate gels. Cells were plated at 250,000 cells per mL (MDA-MB-468, MOLT4, IGROV1, PC3, and Jurkat) or 200,000 cells per mL (T47D) in 2 mL per well of RPMI or DMEM media with 10% serum in 6-well treated tissue culture plates (Greiner, Cat #TCG-657160) or 60 mm treated tissue culture plates (Corning®, Cat #430166) and incubated overnight. The next day, cells were treated with the indicated compounds at the appropriate concentration and protein lysates were harvested at the times specified. Cells were washed once in 1×PBS then lysed in RIPA buffer (150 mM Tris-HCl, 150 mM NaCl, 0.5% (w/v) sodium deoxycholate, 1% (v/v) NP-40, pH 7.5) containing 0.1% (w/v) sodium dodecyl sulfate, 1 mM sodium pyrophosphate, 20 mM sodium fluoride, 50 nM calyculin, and 0.5% (v/v) protease inhibitor cocktail (Sigma-Aldrich®) for 15 minutes. Cell extracts were precleared by centrifugation at 14,000 rpm for 10 minutes at 4° C. The Bio-Rad DC protein assay was used to assess protein concentration, and sample concentration was normalized using SDS sample buffer. Lysates were resolved on acrylamide gels by SDS-polyacrylamide gel electrophoresis and electrophoretically transferred to nitrocellulose membrane (BioRad) at 100 volts for 90 minutes. Membranes were blocked in 5% (w/v) nonfat dry milk in tris-buffered saline (TBS) buffer for 1 hour then incubated with specific primary antibodies diluted in 5% (w/v) nonfat dry milk in TBS-T (TBS with 0.05% Tween®-20) at 4° C. overnight, shaking. The next day, membranes were washed with TBS-T then incubated for 1 hour at room temperature with fluorophore-conjugated secondary antibodies (LI-COR® Biosciences). The membrane was washed again with TBS-T then imaged with a LI-COR® Odyssey® CLx Imaging System (LI-COR® Biosciences).

phosphorylated PRAS40 [3] = test: Immunoblot of phosphorylated PRAS40 in MDA-MB-468 cells; type: cell-based, human; conditions: 24-hour treatment
Protocol: MDA-MB-468 (human breast cancer cell line) cells were maintained in RPMI 1640 (Wisent Bioproducts) supplemented with 10% FBS (Thermo Fisher Scientific) and MCF10A (human breast epithelial cell line) cells were maintained in Dulbecco's modified Eagle's medium (DMEM)/Ham's F12 (Wisent Bioproducts) supplemented with 5% equine serum (Fisher), insulin (10 μg/ml) (Life Technologies), hydrocortisone (500 ng/ml) (Sigma-Aldrich®), epidermal growth factor (20 ng/ml) (R&D Systems), and cholera toxin (100 ng/ml) (List Biological Lab). MDA-MB-468 and MCF10A cells were seeded at 250,000 cells/mL and 200,000 cells/mL, respectively. The following day cells were treated with inventive bifunctional compounds. After 24 hours, cells were washed with phosphate-buffered saline at 4° C. and lysed in radioimmunoprecipitation assay (RIPA) buffer (150 mM Tris-HCl, 150 mM NaCl, 0.5% (w/v) sodium deoxycholate, 1% (v/v) NP-40, pH 7.5) containing 0.1% (w/v) sodium dodecyl sulfate, 1 mM sodium pyrophosphate, 20 mM sodium fluoride, 50 nM calyculin, and 0.5% (v/v) protease inhibitor cocktail (Sigma-Aldrich®)). Cell extracts were precleared by centrifugation at 14,000 rpm for 10 minutes at 4° C. The Bio-Rad DC protein assay was used to assess protein concentration, and sample concentration was normalized using SDS sample buffer. […] Images were stored and analyzed using ImageStudioTM (LI-COR®) software.

ZR-75-1 cells = test: Growth inhibition rate (GR) assay in ZR-75-1 cells; type: cell-based; conditions: 72-hour treatment (FIG. 6A)
Excerpt: (§1) FIG. 6A-FIG. 6F are a set of graphs that show growth inhibition rate (GR) values across concentrations in ZR-75-1 (FIG. 6A), T47D (FIG. 6B), LNCaP (FIG. 6C), MCF-7 (FIG. 6D), MDA-MB-468 (FIG. 6E), and HCC1937 (FIG. 6F) cells after 72-hour treatment with GDC-0068 (blue), inventive bifunctional compound 10 (red), bifunctional compound 10-Me (negative control) (green), and lenalidomide (orange). Error bars represent the standard deviation of three technical replicates.

[4] = test system: ZR-75-1, T47D, LNCaP, MCF-7 cells; test: Growth inhibition rate (GR) assay in cell lines sensitive to AKT inhibition; type: cell-based; conditions: MCF-7, 72-hour treatment (FIG. 6A-6D)
Excerpt: as §1

[5] = T47D and MDA-MB-468 cells, 250 nM (FIG. 7C-7D)

With `CC(C)NC[C@@H](C(=O)N1CCN(c2ncnc3c2[C@H](C)C[C@H]3O)CC1)c1ccc(Cl)cc1` [GDC-0068] as the compound, how does the “Phosphorylated PRAS40 signal” value (phosphorylated PRAS40 [1]) read?
The value was “reduction of phosphorylated PRAS40 signal”.

What about the “Duration of reduction of pPRAS40 levels” value [2, 5] of the same compound?
Its value is “shorter”.

What about the “Inhibition of pPRAS40 compared with compound 10” value [2, 5] of the same compound?
The value was “less-pronounced inhibition of pPRAS40”.

What about the “Phosphorylation of PRAS40, GSK3I3 and S6” value ([2]; T47D and MDA-MB-468 cells, 250 nM, 24 hours (FIG. 7A-7B)) of the same compound?
Its value is “weaker responses”.

And the “pPRAS40 levels after compound washout” value ([2]; T47D or MDA-MB-468 cells, 12 h treatment at 250 nM, then washout (FIG. 7E-7F))?
The value was “rebound of pPRAS40”.

What about the “Phosphorylated PRAS40 signal” value (phosphorylated PRAS40 [3]) of the same compound?
Its value is “reduction of phosphorylated proline-rich AKT substrate of 40 kDa (PRAS40) signal”.

And the GR50 (ZR-75-1 cells)?
Its GR50 is “comparable GR50 value”.

How did the Anti-proliferative effects [4] turn out when `Nc1cccc2c1CN(C1CCC(=O)NC1=O)C2=O` (centres unmarked) [lenalidomide] was run?
The Anti-proliferative effects was “did not have strong anti-proliferative effects”.
